PMC5691054, “An unexpected protein interaction promotes drug resistance in leukemia” (Nature Communications, 2017)
Entries after “also recorded” stand apart in the source; their conditions may differ.

Key:
[1] = tested on: mitochondrial complex III; set-up: method as in PMID 6257713; settings: in words; cited from earlier work
Protocol: Among the 11,297 chemicals tested, 219 of them (144 unique molecules) had >30% inhibition and were selected for further dose-response analysis using 10 concentrations ranging from 3.5 nM to 70 μM.

[2] = tested on: primary AML cells from adult patients; experiment: Annexin V/PI apoptosis in primary AML patient samples; type: cell-based, Human; settings: 50 or 100 µM cytarabine + 10 nM Antimycin A 4 h, then 44 h ± Antimycin A; triplicates; in words
Protocol: Primary AML cells from adult patients were treated with either vehicle, 50 or 100 µM cytarabine, 10 nM Antimycin A, or the combination of 50 or 100 µM cytarabine + 10 nM Antimycin A for 4 h. Post treatment, the cells were washed with fresh media (2×) and resuspended in the absence or presence of 10 nM Antimycin A and cultured for an additional 44 h (for a total treatment time of 48 h). The cells were then stained with Annexin V-fluorescein isothiocyanate (FITC)/propidium iodide (PI) apoptosis Kit (Beckman Coulter; Brea, CA, USA). The stage of apoptotic cells (Annexin V-positive, but early or late apoptosis) is identified by the proportion of AnnexinV+/PI− (early apoptosis) and Annexin V+/PI+ (late apoptosis) cells. This experiment was performed once in triplicates (presented as average ± SEM) due to the limited sample availability. Patient samples were selected based on the availability of an adequate number of cells to perform the assay.

[3] = target: T1, MPP1 (Homo sapiens, UniProt Q00013); experiment: MPP1 protein expression (immunoblot); type: cell-based; settings: Antimycin A treatment; Meg01 cells (Supplementary Fig. 6e), in words
T1 construct: incubated with various concentrations of full-length MPP1; His tag (N); S-tag (N); made in house; host or cells: E. coli
T1 sequence (Q00013 1-466): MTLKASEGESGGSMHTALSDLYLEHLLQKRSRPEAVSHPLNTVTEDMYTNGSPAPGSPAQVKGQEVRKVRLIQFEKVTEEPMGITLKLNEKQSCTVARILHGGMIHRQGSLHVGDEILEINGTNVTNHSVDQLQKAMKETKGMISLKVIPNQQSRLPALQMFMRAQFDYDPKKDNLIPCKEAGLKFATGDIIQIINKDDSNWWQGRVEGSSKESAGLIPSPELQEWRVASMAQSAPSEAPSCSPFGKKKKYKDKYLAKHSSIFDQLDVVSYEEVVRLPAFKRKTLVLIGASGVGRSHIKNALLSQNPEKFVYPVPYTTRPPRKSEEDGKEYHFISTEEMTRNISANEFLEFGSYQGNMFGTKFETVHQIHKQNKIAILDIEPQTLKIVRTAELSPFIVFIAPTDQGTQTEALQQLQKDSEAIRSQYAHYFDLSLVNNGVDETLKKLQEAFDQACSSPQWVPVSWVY
Excerpt: Forty-eight hours after transfection, cells were trypsinized and washed twice in PBS. Cells were lysed in MPER lysis buffer (Pierce) containing 1× protease inhibitor cocktail (Roche). Cell lysates were subjected to three rounds of sonication on ice with a minimum of 15 s of sonication per round. Protein concentration of the lysates was quantified using a Bradford assay (Biorad). Twenty-five micrograms of total protein lysates were loaded and separated by SDS-PAGE on a 10% gel. Proteins were then transferred to a nitrocellulose membrane (GE Healthcare) and probed with antibodies directed against various proteins of interest. The levels of pAcGFP-tagged ABCC4 and ABCC4ΔC were determined using the polyclonal full-length GFP antibody (1:2000, Santa Cruz). The level of MPP1 was detected using the monoclonal p55/MPP1 antibody (1:2500) from Epitomics. Where specified, the levels of ABCC4 were detected by using the rat monoclonal M4I10 antibody (1:2000, Abcam). An anti-Actin antibody was used as a loading control (1:10,000). Secondary antibodies conjugated to HRP (1:2000, GE Healthcare) were used. For co-immunoprecipitation experiments, light chain-specific secondary antibodies (1:5000, Jackson Immunoresearch) was used to prevent cross-contamination with heavy chain antibodies. The Clarity chemiluminescence (BioRad) reagent was used to detect the proteins. […]

[4] = tested on: MO7e cells; experiment: 6MP cytotoxicity in MO7e cells and CRISPR knock-outs; type: cell-based, Human; settings: MO7e vs. ABCC4 KO; Antimycin A 10 nM, in words
Protocol: HEK293 cells transfected with ABCC4 or ABCC4ΔC in the presence or absence of MPP1, MO7e, and Meg01 cells were treated with 10 concentrations of 6MP, ranging from 1 to 1000 µM, for 96 h. Cell viability analysis was determined using CellTiter Glo (Promega). Where applicable, cell penetrating peptides conjugated to the PDZ-binding motif of ABCC4 (labeled either ABCC4-PDZ or ABCC4ΔC) were added to the cells at 20 μM. Media was changed daily and new ABCC4-PDZ/ABCC4ΔC peptide and 6MP was added. IC50 values were calculated using GraphPad Prism.
CRISPR-Cas9 plasmids containing gRNAs against ABCC4 ([…]) and MPP1 ([…]) were purchased from Sigma Aldrich. MO7e cells were transiently transfected with constructs containing the gRNA, Cas9 Nickase, and a flurophore. Forty-eight hours after transfection, cells were sorted for fluorescent positive cells and single cells were sorted into individual wells of a 96-well plate. Single-sorted cells were allowed to expand and deletion of the gene of interest was verified by immunoblotting.
(§1) The Meg01, MO7e, and ABCC4 KO MO7e cell lines were plated at 1500 cells per well in a 96-well plate. Cells were treated with 10 concentrations of Antimycin A (Santa Cruz) ranging from 0.01 to 1000 μM. Cell viability was determined using CellTiter Glo (Promega). Meg01, MO7e, and ABCC4 KO MO7e cells in the presence or absence of 10 nM Antimycin A were treated with 10 concentrations of 6MP, ranging from 1 to 1000 µM, for 96 h. Cell viability analysis was determined using CellTiter Glo. IC50 values were calculated using GraphPad Prism.

[5] = tested on: ABCC4 at the plasma membrane; experiment: Surface biotinylation of ABCC4; type: cell-based; settings: Antimycin A, Fig. 6f, in words
Protocol: MO7e, Meg01, or transfected HEK293 cells were treated with trypsin, washed in PBS (pH 8) and incubated with 0.8 mM EZ-Link Sulfo-NHS-SS-Biotin (Pierce) solution for 30 min at room temperature with gentle agitation. Following incubation, the biotin molecules were quenched with 25 mM tris (pH 8) solution containing 0.1 M glycine before cell lysis using MPER (Thermo Scientific) containing a protease inhibitor cocktail (Roche). A volume of 20 µl of the lysate was removed for the total lysate control and the remaining lysate was incubated with avidin-agarose beads (Pierce) for 18 h on a rotatory shaker at 4 °C. The agarose beads attached to cell surface proteins were then separated from the lysate containing cytosolic proteins by centrifugation and the three samples (input, supernatant and pellet) were analyzed by immunoblotting.

[6] = tested on: MO7e cells; experiment: Antimycin A cytotoxicity in MO7e and ABCC4 KO MO7e cells; type: cell-based, Human; settings: MO7e; 6MP 10 μM (sublethal), in words
Protocol: as §1, with “Meg01, MO7e, and ABCC4 KO MO7e cells in the presence or absence of 10 nM Antimycin A were treated with 10 concentrations of 6MP, ranging from 1 to 1000 µM, for 96 h.” left out

## CCCCCC[C@H]1C(=O)O[C@H](C)[C@H](NC(=O)c2cccc(NC=O)c2O)C(=O)O[C@@H](C)[C@@H]1OC(=O)CC(C)C [Antimycin A]
[1]
  mitochondrial complex III inhibition: mitochondrial complex III inhibitor at micromolar concentration
[2]
  Antimycin A enhancement of cytarabine-induced apoptosis in primary AML samples: Three of the 5 patients; also recorded: enhanced cytarabine cytoxicity in three primary AML patient samples; also recorded: did not show enhancement on cytarabine-induced apoptosis; also recorded: increased Annexin V^+ percentage of cells with combination treatment of Antimycin A and cytarabine vs cytarabine alone
[3]
  effect on protein expression of MPP1: unchanged; also recorded: does not reduce the protein expression of MPP1
[4]
  effect of Antimycin A on 6MP sensitivity: shifted the 6MP dose–response curve to the left, but only for cells harboring ABCC4, not ABCC4 KO cells; also recorded: specifically sensitizes ABCC4 expressing MO7e cells, but not ABCC4 KO cells
[5]
  surface / plasma membrane ABCC4: reduces ABCC4 at the plasma membrane
[6]
  Antimycin A cytotoxicity in combination with non-cytotoxic 6MP: sensitizes MO7e cells to Antimycin A; also recorded: shifted the Antimycin A survival curve to the left indicating greater toxicity when an ABCC4 substrate was present
